PubChem BioAssay (NCI)
Several values for one entry are separate records, joined by “and”; a condition that tells them apart may be missing. Identical values can stand only once.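 Step 1: Grow cells in 96-well plates. Step 2: Expose to compound for 48 hours at 5 concentrations. Step 3: Interpolate endpoints linearly; if unreached, use highest concentration. GI50: concentration for 50% inhibition of growth. TGI marks complete inhibition of growth.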

test system: 786-0 renal; test: NCI-60 cell line screen, 48 h

**Q.** Which GI50 does the source give for `c1ccc(Sc2ccc(Cc3nc4cc5ccccc5cc4[nH]3)cc2)cc1` here?
**A.** 4.77 µM

**Q.** And the TGI?
**A.** > 63.8 µM

**Q.** `CCc1nc2cc(F)c(/C=C/C(=O)NO)cc2c(=O)n1CCc1ccccc1` was tested. Which GI50 did it give?
**A.** 0.309 µM

**Q.** And the TGI?
**A.** 2.03 µM

**Q.** What does the source list for `C/C(=N\Nc1ccc(Cl)cn1)c1ccc2ccccc2n1`?
**A.** GI50: 2.44 µM; TGI: 7.55 µM

**Q.** How did the TGI turn out when `CC1=C(/C=C/Cl)CC(Cl)C(C)(Cl)C1` (stereo unspecified) was run?
**A.** > 100 µM

**Q.** What does the source list for `C=C1C(=O)O[C@H]2[C@H]1CC/C(COC(=O)NCCCCNC(=O)OC/C1=C/CC[C@@]3(C)O[C@H]3[C@H]3OC(=O)C(=C)[C@@H]3CC1)=C\CC[C@@]1(C)O[C@@H]21`?
**A.** GI50: 1.99 µM; TGI: 4.26 µM

**Q.** `COc1ccc(C[N+](C)(C)N)cc1OC` was tested. Which GI50 did it give?
**A.** > 100 µM

**Q.** And the TGI?
**A.** > 100 µM

**Q.** `NS(=O)(=O)c1ccc(-c2ccc3c(NC(=O)C4CC4)n[nH]c3c2)cc1` was tested. Which GI50 did it give?
**A.** > 25 µM

**Q.** And the TGI?
**A.** > 25 µM

**Q.** Which results are given for `C=CCCCCC/C=C\[C@@H](O)C#CC#C/C=C/CO`?
**A.** GI50: > 100 µM; TGI: > 100 µM

**Q.** For `Cc1cc(C(=O)Nc2ccc3cc(CN4CCOCC4)ccc3n2)c(C)n1-c1ccccc1`, which GI50 is on record?
**A.** 4.75 µM

**Q.** And the TGI?
**A.** 17.9 µM

**Q.** For `CCCCCCCCCCCCCCCC(=O)OCC(C[As](=O)(O)O)OC(=O)CCCCCCCCCCCCCCC` (stereo unspecified), which TGI is on record?
**A.** > 100 µM

**Q.** With `COc1ccc(C(=O)c2cc(C)c(OC)c(C)c2)cc1OC(=O)CCl` as the molecule, how does the GI50 read?
**A.** 0.0763 µM

**Q.** What about the TGI of the same molecule?
**A.** > 100 µM

**Q.** Which results are given for `NC(=O)c1cc(Cl)ccc1NC(=O)/C=C/c1ccccc1`?
**A.** GI50: 3.86 µM; TGI: > 34.8 µM

**Q.** `O=C1/C(=C(/c2ccccc2)N2CCOCC2)Cc2ccccc21` was tested. Which GI50 did it give?
**A.** 1.98 µM

**Q.** What about the TGI of the same molecule?
**A.** 3.81 µM

**Q.** Which GI50 does the source give for `CC1=CC(=O)C=CC1=O` here?
**A.** 19.3 µM and 19.1 µM

**Q.** What about the TGI of the same molecule?
**A.** 33.8 µM and 34.2 µM

**Q.** What does the source list for `CCCC(CCC)NCC(O)c1cc(-c2ccc(C(F)(F)F)cc2)nc(C(F)(F)F)c1` (stereo unspecified)?
**A.** GI50: 1.37 µM; TGI: 2.9 µM

**Q.** Which GI50 does the source give for `Cc1cc(C)c(NC(=O)c2sc3nc4c(cc3c2N)C(=O)CCC4)c(C)c1` here?
**A.** 6.85 µM

**Q.** What about the TGI of the same molecule?
**A.** > 100 µM

**Q.** Which TGI does the source give for `CN(C)CCNc1ccc(CO)c2oc3ccc(O)cc3c(=O)c12` here?
**A.** 46.1 µM

**Q.** With `Cc1ccc(NC(=O)c2cccc(C(C)(C)C#N)c2)cc1Nc1ccc2ncn(C)c(=O)c2c1` as the molecule, how does the GI50 read?
**A.** 11.6 µM

**Q.** What about the TGI of the same molecule?
**A.** > 100 µM

**Q.** With `Cc1cc2ncnn2cc1Nc1ncc2c(n1)n(C1CCOCC1)c(=O)n2C` as the molecule, how does the GI50 read?
**A.** 8.29 µM

**Q.** And the TGI?
**A.** 94.8 µM

**Q.** With `COc1cc(Cc2nccc3cc(OC)c(OC)cc23)c(C(C)=O)cc1OC` as the molecule, how does the TGI read?
**A.** > 750 µM

test system: HOP-92 NSCLC; test: NCI-60 cell line screen, 48 h

**Q.** How did the GI50 turn out when `CC1(C)C(=O)/C(=C\c2cccnc2)C[C@]2(C)[C@H]3CC[C@@H]4[C@H]5[C@H](C(=O)/C=C/c6cccnc6)CC[C@]5(C(=O)O)CC[C@@]4(C)[C@]3(C)CC[C@@H]12` was run?
**A.** 2.31 µM

**Q.** What about the TGI of the same molecule?
**A.** 7.64 µM

**Q.** Which results are given for `COc1cc2ncnc(-n3ncc4cc(NC(=O)Nc5ccccc5)ccc43)c2cc1OC`?
**A.** GI50: 0.707 µM; TGI: 4.15 µM

**Q.** `COc1ccc(C(=O)c2cc(OC)c(OC)c(OC)c2)cc1/C=C/C(=O)c1ccc(F)cc1` was tested. Which GI50 did it give?
**A.** 2.7 µM

**Q.** And the TGI?
**A.** 34.9 µM

**Q.** How did the TGI turn out when `OCC1OC(n2cnc3c2NC=NC[C@H]3O)C(Cl)C1O` (stereo partly specified) was run?
**A.** > 100 µM

**Q.** With `COc1ccc(C2=C(Cl)c3cc(OC)c(OC)cc3C2Cl)cc1` (stereo unspecified) as the molecule, how does the TGI read?
**A.** 30.3 µM

**Q.** What does the source list for `COc1ccc(-c2[nH]c3ccc(OC)cc3c2/C=C(\C#N)S(=O)(=O)c2ccccc2)cc1`?
**A.** GI50: 0.692 µM; TGI: 6.81 µM

**Q.** With `O=c1cc(NCC(O)CN2CCCC2)n(Cc2ccccc2)c(=O)n1Cc1ccccc1` (stereo unspecified) as the molecule, how does the GI50 read?
**A.** 14.9 µM

**Q.** And the TGI?
**A.** > 100 µM

**Q.** For `c1ccc(Sc2ccc(Cc3nc4cc5ccccc5cc4[nH]3)cc2)cc1`, which GI50 is on record?
**A.** 6.33 µM

**Q.** What about the TGI of the same molecule?
**A.** 66.3 µM

**Q.** What does the source list for `CCc1nc2cc(F)c(/C=C/C(=O)NO)cc2c(=O)n1CCc1ccccc1`?
**A.** GI50: 0.33 µM; TGI: 4.87 µM

**Q.** With `C/C(=N\Nc1ccc(Cl)cn1)c1ccc2ccccc2n1` as the molecule, how does the GI50 read?
**A.** 2.25 µM

**Q.** What about the TGI of the same molecule?
**A.** > 100 µM

**Q.** Which TGI does the source give for `CC1=C(/C=C/Cl)CC(Cl)C(C)(Cl)C1` (stereo unspecified) here?
**A.** > 100 µM

**Q.** How did the GI50 turn out when `C=C1C(=O)O[C@H]2[C@H]1CC/C(COC(=O)NCCCCNC(=O)OC/C1=C/CC[C@@]3(C)O[C@H]3[C@H]3OC(=O)C(=C)[C@@H]3CC1)=C\CC[C@@]1(C)O[C@@H]21` was run?
**A.** 0.287 µM

**Q.** And the TGI?
**A.** 1.06 µM

**Q.** How did the GI50 turn out when `COc1ccc(C[N+](C)(C)N)cc1OC` was run?
**A.** > 100 µM

**Q.** What about the TGI of the same molecule?
**A.** > 100 µM

**Q.** For `NS(=O)(=O)c1ccc(-c2ccc3c(NC(=O)C4CC4)n[nH]c3c2)cc1`, which GI50 is on record?
**A.** 16.6 µM

**Q.** And the TGI?
**A.** > 25 µM
